Reference: patent US11135234B2, “Effective aminoglycoside antibiotic for multidrug-resistant bacteria” (MICROBIAL CHEMISTRY RESEARCH FOUNDATION, priority 2015, dated 2021)
Converted amounts (≈) assume the structure as drawn.

Legend:
S. marcescens TH-0447 = experiment: MIC, agar plate dilution method, S. marcescens TH-0447; type: cell-based, Serratia marcescens; conditions: for minimal inhibitory concentration (MIC): S. marcescens TH-0447, AMK-resistant; for MIC: Serratia marcescens, TH0447, S. marcescens TH-0447, AMK-resistant, read-out: minimal inhibitory concentration (MIC)
Protocol: (§1) As for the representative compounds of a new aminoglycoside antibiotic of the present invention described in Examples, the minimal inhibitory concentration (MIC, μg/mL) was measured for various assay strains of bacteria using an agar plate dilution method in accordance with the method described in the Japan Society of Chemotherapy.

E. faecium ATCC19434 = experiment: MIC, agar plate dilution method, E. faecium ATCC19434; type: cell-based, Enterococcus faecium; conditions: for minimal inhibitory concentration (MIC): E. faecium ATCC19434; for MIC: Enterococcus faecium, ATCC19434, E. faecium ATCC19434, read-out: minimal inhibitory concentration (MIC)
Protocol: as §1

P. aeruginosa PAO1 = experiment: MIC, agar plate dilution method, P. aeruginosa PAO1; type: cell-based, Pseudomonas aeruginosa; conditions: for minimal inhibitory concentration (MIC): P. aeruginosa PAO1, Sensitive bacterium; for MIC: Pseudomonas aeruginosa, PAO1, P. aeruginosa PAO1, Sensitive bacterium, read-out: minimal inhibitory concentration (MIC)
Protocol: as §1

S. aureus MF490 = experiment: MIC, agar plate dilution method, S. aureus MF490; type: cell-based, Staphylococcus aureus; conditions: for minimal inhibitory concentration (MIC): S. aureus MF490, MRSA; for MIC: Staphylococcus aureus, MRSA, read-out: minimal inhibitory concentration (MIC)
Protocol: as §1

[1] = system: K. pneumoniae ATCC BAA-2146; experiment: MIC, agar plate dilution method, K. pneumoniae ATCC BAA-2146; type: cell-based, Klebsiella pneumoniae; conditions: for minimal inhibitory concentration (MIC): K. pneumoniae ATCC BAA-2146, NDM-producing strain; for MIC: Klebsiella pneumoniae, ATCCBAA2146, K. pneumoniae ATCC BAA-2146, NDM-producing strain, read-out: minimal inhibitory concentration (MIC)
Protocol: as §1

[2] = system: A. baumannii ATCC BAA-1710; experiment: MIC, agar plate dilution method, A. baumannii ATCC BAA-1710; type: cell-based, Acinetobacter baumannii; conditions: for minimal inhibitory concentration (MIC): A. baumannii ATCC BAA-1710, MDRA; for MIC: Acinetobacter baumannii, ATCCBAA1710, A. baumannii ATCC BAA-1710, MDRA, read-out: minimal inhibitory concentration (MIC)
Protocol: as §1

S. aureus RN4220/pMS520 = experiment: MIC, agar plate dilution method, S. aureus RN4220/pMS520; type: cell-based, Staphylococcus aureus; conditions: for minimal inhibitory concentration (MIC): S. aureus RN4220/pMS520, MRSA; for MIC: Staphylococcus aureus, MRSA, read-out: minimal inhibitory concentration (MIC), S. aureus RN4220/pMS520, MRSA
Protocol: as §1

P. aeruginosa MSC17707 = experiment: MIC, agar plate dilution method, P. aeruginosa MSC17707; type: cell-based, Pseudomonas aeruginosa; conditions: for minimal inhibitory concentration (MIC): P. aeruginosa MSC17707, AMK-resistant; for MIC: Pseudomonas aeruginosa, MSC17707, P. aeruginosa MSC17707, AMK-resistant, read-out: minimal inhibitory concentration (MIC)
Protocol: as §1

S. marcescens GN6944 = experiment: MIC, agar plate dilution method, S. marcescens GN6944; type: cell-based, Serratia marcescens; conditions: S. marcescens GN6944, GM-resistant; for MIC: Serratia marcescens, read-out: minimal inhibitory concentration (MIC)
Protocol: as §1

[3] = system: K. pneumoniae ATCC BAA-1705; experiment: MIC, agar plate dilution method, K. pneumoniae ATCC BAA-1705; type: cell-based, Klebsiella pneumoniae; conditions: for minimal inhibitory concentration (MIC): K. pneumoniae ATCC BAA-1705, KPC-producing strain; for MIC: Klebsiella pneumoniae, ATCCBAA1705, K. pneumoniae ATCC BAA-1705, KPC-producing strain, read-out: minimal inhibitory concentration (MIC)
Protocol: as §1

P. aeruginosa PAO1/GN315 = experiment: MIC, agar plate dilution method, P. aeruginosa PAO1/GN315; type: cell-based, Pseudomonas aeruginosa; conditions: for minimal inhibitory concentration (MIC): P. aeruginosa PAO1/GN315, AMK-resistant; for MIC: Pseudomonas aeruginosa, read-out: minimal inhibitory concentration (MIC), P. aeruginosa PAO1/GN315, AMK-resistant
Protocol: as §1

S. aureus RN4220 = experiment: MIC, agar plate dilution method, S. aureus RN4220; type: cell-based, Staphylococcus aureus; conditions: for minimal inhibitory concentration (MIC): S. aureus RN4220, Sensitive bacterium; for MIC: Staphylococcus aureus, RN4220, S. aureus RN4220, Sensitive bacterium, read-out: minimal inhibitory concentration (MIC)
Protocol: as §1

E. coli JM109/pMW218 = experiment: MIC, agar plate dilution method, E. coli JM109/pMW218; type: cell-based, Escherichia coli; conditions: for minimal inhibitory concentration (MIC): E. coli JM109/pMW218, Sensitive bacterium; for MIC: Escherichia coli, JM109/PMW218, E. coli JM109/pMW218, Sensitive bacterium, read-out: minimal inhibitory concentration (MIC)
Protocol: as §1

P. aeruginosa MSC01035 = experiment: MIC, agar plate dilution method, P. aeruginosa MSC01035; type: cell-based, Pseudomonas aeruginosa; conditions: P. aeruginosa MSC01035, ABK-resistant; for MIC: Pseudomonas aeruginosa, read-out: minimal inhibitory concentration (MIC)
Protocol: as §1

Compound | minimal inhibitory concentration (MIC) (S. marcescens TH-0447) | minimal inhibitory concentration (MIC) (E. faecium ATCC19434) | minimal inhibitory concentration (MIC) (P. aeruginosa PAO1) | minimal inhibitory concentration (MIC) (S. aureus MF490) | minimal inhibitory concentration (MIC) [1] | minimal inhibitory concentration (MIC) [2] | minimal inhibitory concentration (MIC) (S. aureus RN4220/pMS520) | minimal inhibitory concentration (MIC) (P. aeruginosa MSC17707) | minimal inhibitory concentration (MIC) (S. marcescens GN6944) | minimal inhibitory concentration (MIC) [3] | minimal inhibitory concentration (MIC) (P. aeruginosa PAO1/GN315) | minimal inhibitory concentration (MIC) (S. aureus RN4220) | minimal inhibitory concentration (MIC) (E. coli JM109/pMW218) | minimal inhibitory concentration (MIC) (P. aeruginosa MSC01035) | MIC (S. marcescens TH-0447) | MIC (E. faecium ATCC19434) | MIC (P. aeruginosa PAO1) | MIC (S. aureus MF490) | MIC [1] | MIC [2] | further results
CN[C@@H]1[C@@H](O[C@H]2O[C@H](CO)[C@@H](N)[C@@H](O)[C@H]2O)O[C@H]2C[C@@H](N)[C@@H](O[C@H]3[C@H](O)[C@@H](O)[C@H](N)C[C@@H]3N)O[C@@H]2[C@@H]1O [Compound H3, 3″-epiapramycin] | 8 µg/mL (≈ 14.8 µM) | 16 µg/mL (≈ 29.7 µM) | 8 µg/mL (≈ 14.8 µM) | 8 µg/mL (≈ 14.8 µM) | 2 µg/mL (≈ 3.71 µM) | 8 µg/mL (≈ 14.8 µM) | 4 µg/mL (≈ 7.41 µM) | 8 µg/mL (≈ 14.8 µM) | 8 µg/mL (≈ 14.8 µM) | 2 µg/mL (≈ 3.71 µM) | 8 µg/mL (≈ 14.8 µM) | 4 µg/mL (≈ 7.41 µM) | 2 µg/mL (≈ 3.71 µM) | 8 µg/mL (≈ 14.8 µM) |  |  |  |  |  |  | 
CNC1C(OC2OC(CO)C(N)C(O)C2O)OC2CC(N)C(OC3C(N)CC(N)C(O)C3O)OC2C1O (stereo not shown) [Compound I3, 2″,3″-diepiapramycin] | 32 µg/mL (≈ 59.3 µM) | 32 µg/mL (≈ 59.3 µM) | 16 µg/mL (≈ 29.7 µM) | 32 µg/mL (≈ 59.3 µM) | 4 µg/mL (≈ 7.41 µM) | 16 µg/mL (≈ 29.7 µM) | 8 µg/mL (≈ 14.8 µM) | 32 µg/mL (≈ 59.3 µM) | 16 µg/mL (≈ 29.7 µM) | 4 µg/mL (≈ 7.41 µM) | 32 µg/mL (≈ 59.3 µM) | 8 µg/mL (≈ 14.8 µM) | 4 µg/mL (≈ 7.41 µM) | 64 µg/mL (≈ 119 µM) |  |  |  |  |  |  | 
CNC1C(O[C@H]2OC(CF)[C@@H](N)[C@H](O)C2O)O[C@H]2CC(N)[C@@H](O[C@@H]3C(N)C[C@@H](N)C(O)[C@H]3O)OC2C1O (stereo partly shown) [Compound J4, 6″-deoxy-6″-fluoroapramycin] |  |  |  |  |  |  |  |  |  |  |  |  |  |  | 16 µg/mL (≈ 29.5 µM) | 32 µg/mL (≈ 59.1 µM) | 8 µg/mL (≈ 14.8 µM) | 16 µg/mL (≈ 29.5 µM) | 2 µg/mL (≈ 3.69 µM) | 32 µg/mL (≈ 59.1 µM) | MIC (S. aureus RN4220/pMS520): 4 µg/mL (≈ 7.39 µM); MIC (P. aeruginosa MSC17707): 16 µg/mL (≈ 29.5 µM); MIC (S. marcescens GN6944): 16 µg/mL (≈ 29.5 µM); MIC [3]: 2 µg/mL (≈ 3.69 µM); MIC (P. aeruginosa PAO1/GN315): 8 µg/mL (≈ 14.8 µM); MIC (S. aureus RN4220): 8 µg/mL (≈ 14.8 µM); MIC (E. coli JM109/pMW218): 2 µg/mL (≈ 3.69 µM); MIC (P. aeruginosa MSC01035): 16 µg/mL (≈ 29.5 µM)
CN[C@@H]1[C@@H](O[C@H]2O[C@H](C)[C@@H](N)C[C@H]2O)O[C@H]2C[C@@H](N)[C@@H](O[C@H]3[C@H](O)[C@@H](O)[C@H](N)C[C@@H]3N)O[C@@H]2[C@@H]1O [Compound K4, 3″,6″-dideoxyapramycin] | 8 µg/mL (≈ 15.8 µM) | 8 µg/mL (≈ 15.8 µM) | 8 µg/mL (≈ 15.8 µM) | 8 µg/mL (≈ 15.8 µM) | 1 µg/mL (≈ 1.97 µM) | 16 µg/mL (≈ 31.5 µM) | 2 µg/mL (≈ 3.94 µM) | 16 µg/mL (≈ 31.5 µM) | 4 µg/mL (≈ 7.88 µM) | 2 µg/mL (≈ 3.94 µM) | 8 µg/mL (≈ 15.8 µM) | 2 µg/mL (≈ 3.94 µM) | 1 µg/mL (≈ 1.97 µM) | 16 µg/mL (≈ 31.5 µM) |  |  |  |  |  |  | 
CNC1C(O[C@H]2OC(C)[C@@H](N)[C@H](O)C2O)O[C@H]2CC(N)[C@@H](O[C@H]3CC(O)[C@H](N)CC3N)OC2C1O (stereo partly shown) [Compound L5, 5,6″-dideoxyapramycin] |  |  |  |  |  |  |  |  |  |  |  |  |  |  | 4 µg/mL (≈ 7.88 µM) | 8 µg/mL (≈ 15.8 µM) | 4 µg/mL (≈ 7.88 µM) | 4 µg/mL (≈ 7.88 µM) | 1 µg/mL (≈ 1.97 µM) | 8 µg/mL (≈ 15.8 µM) | MIC (S. aureus RN4220/pMS520): 1 µg/mL (≈ 1.97 µM); MIC (P. aeruginosa MSC17707): 8 µg/mL (≈ 15.8 µM); MIC (S. marcescens GN6944): 4 µg/mL (≈ 7.88 µM); MIC [3]: 1 µg/mL (≈ 1.97 µM); MIC (P. aeruginosa PAO1/GN315): 4 µg/mL (≈ 7.88 µM); MIC (S. aureus RN4220): 2 µg/mL (≈ 3.94 µM); MIC (E. coli JM109/pMW218): 1 µg/mL (≈ 1.97 µM); MIC (P. aeruginosa MSC01035): 8 µg/mL (≈ 15.8 µM)
